Bounds are passed on as bounds.

The test system of the assay is LG0567-F671-PDC KRAS tumor spheroid viability. Briefly: Anticancer human tumor LG0567-F671-PDC patient-derived lung adenocarcinoma cell line growth inhibition [KRAS2]. The note with it: spheroids with HUVEC and MSC; for viability, T/C: stronger effect = lower value. The gist of the method: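 KRAS-mutant tumor cells were grown as spheroids with HUVEC endothelial cells and human MSCs as stroma. Targeted agents were tested alone and with KRAS pathway inhibitors. Doses started at or near clinical Cmax, or 10 microM, descending half-log.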
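Further: drug exposure lasted seven days after spheroids formed for three days.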
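Wherever viability, T/C is given: 100% = DMSO vehicle control viability.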

Broadly, the IC50 is the point on the concentration scale where inhibition reaches its midpoint. One may read the viability, T/C as the ratio of treated to control. Turning to `COC(=O)c1ccc2c(C(=Nc3ccc(N(C)C(=O)CN4CCN(C)CC4)cc3)c3ccccc3)c(O)[nH]c2c1` + CNCc1ccccc1-c1csc(C(C)Nc2nc(C)nc3cc(OC)c(OC)cc23)c1, the IC50 by setting is: (curve of first compound, second compound 0.1 µM) greater than 10000 nM; (curve of first compound, second compound 0.316 µM) less than 31.6 nM; (curve of first compound, second compound 1 µM) 426 nM; (curve of first compound, second compound 3.16 µM) less than 31.6 nM; (curve of first compound, second compound 10 µM) less than 31.6 nM. In addition, the viability, T/C (second compound 0.1 µM, first compound 0.0316 µM) is 66.3%; the viability, T/C (second compound 0.1 µM, first compound 0.1 µM) is 57.4%; the viability, T/C (second compound 0.1 µM, first compound 0.316 µM) was 57.2%; the viability, T/C (second compound 0.1 µM, first compound 1 µM) is 59.2%; the viability, T/C (second compound 0.1 µM, first compound 3.16 µM) was 65.4%; the viability, T/C (second compound 0.1 µM, first compound 10 µM) was 56.4%. In addition, the viability, T/C (second compound 0.316 µM, first compound 0.0316 µM) was 50.6%; the viability, T/C (second compound 0.316 µM, first compound 0.1 µM) was 45.5%; the viability, T/C (second compound 0.316 µM, first compound 0.316 µM) is 39.7%; the viability, T/C (second compound 0.316 µM, first compound 1 µM) is 53.6%; the viability, T/C (second compound 0.316 µM, first compound 3.16 µM) was 29.4%; the viability, T/C (second compound 0.316 µM, first compound 10 µM) was 41.7%. In addition, the viability, T/C was 52.5% (second compound 1 µM, first compound 0.0316 µM); 48.5% (second compound 1 µM, first compound 0.1 µM); 52.8% (second compound 1 µM, first compound 0.316 µM); 46.9% (second compound 1 µM, first compound 1 µM); 2.38% (second compound 1 µM, first compound 3.16 µM); 3.49% (second compound 1 µM, first compound 10 µM). Further, the viability, T/C is, setting by setting: (second compound 3.16 µM, first compound 0.0316 µM) 1.05%; (second compound 3.16 µM, first compound 0.1 µM) 2.43%; (second compound 3.16 µM, first compound 0.316 µM) 0.68%; (second compound 3.16 µM, first compound 1 µM) 0.71%; (second compound 3.16 µM, first compound 3.16 µM) 0.64%; (second compound 3.16 µM, first compound 10 µM) 0.52%. The viability, T/C was 1.55% (second compound 10 µM, first compound 0.0316 µM); 1.48% (second compound 10 µM, first compound 0.1 µM); 2.71% (second compound 10 µM, first compound 0.316 µM); 2.27% (second compound 10 µM, first compound 1 µM); 0.69% (second compound 10 µM, first compound 3.16 µM); 0.4% (second compound 10 µM, first compound 10 µM).
Turning to `CCN1CCN(Cc2ccc(Nc3ncc(F)c(-c4cc(F)c5nc(C)n(C(C)C)c5c4)n3)nc2)CC1`, the viability, T/C was 97.6% [middle of 5 runs] (compound 0.00316 µM); 93.7% [middle of 5 runs] (compound 0.01 µM); 76.9% [middle of 5 runs] (compound 0.0316 µM); 71% [middle of 5 runs] (compound 0.1 µM); 70.9% [middle of 5 runs] (compound 0.316 µM); 65.2% [middle of 5 runs] (compound 1 µM). Besides, the half-maximal inhibitory concentration (IC50) (curve of compound) was greater than 1000 nM.
